According to ChEMBL document CHEMBL5104101, “Insights into the modular design of kinase inhibitors and application to Abl and Axl” (RSC Med Chem, 2022):
Activity calls are given as the source filed them. The calls are words filed in the database; no cut-off is given here.

Assays:
[1] = target: Mitogen-activated protein kinase 14 (Homo sapiens) (UniProt Q16539); experiment: Inhibition of MAPK14 (unknown origin) by Nano-syn mobility shift assay
BaF3 [2] = experiment: Cytotoxicity against mouse BaF3 cells stably expressing ABL wildtype assessed as cell growth inhibition incubated for 72 hrs by celltiter-glo luminescent cell viability assay; assay type: functional
[3] = target: Vascular endothelial growth factor receptor 2 (Homo sapiens) (UniProt P35968); experiment: Inhibition of KDR (unknown origin) by Nano-syn mobility shift assay
K562 = experiment: Cytotoxicity against human K562 cells assessed as cell growth inhibition incubated for 72 hrs by celltiter-glo luminescent cell viability assay; assay type: functional
BaF3 [4] = experiment: Cytotoxicity against mouse BaF3 cells stably expressing ABL-T315I mutant assessed as cell growth inhibition incubated for 72 hrs by celltiter-glo luminescent cell viability assay; assay type: functional
[5] = target: Tyrosine-protein kinase ABL1 (Homo sapiens, UniProt P00519); experiment: Inhibition of NanoLuc-tagged ABL1 wild type (unknown origin) expressed in HEK293 cells by NanoBRET TE assay; assay type: cell-based
[6] = target: MAP kinase-interacting serine/threonine-protein kinase 2 (Homo sapiens) (UniProt Q9HBH9); experiment: Inhibition of MKNK2 (unknown origin) by Nano-syn mobility shift assay
Sequence of MAP kinase-interacting serine/threonine-protein kinase 2 (Homo sapiens) (Q9HBH9 whole entry, looked up): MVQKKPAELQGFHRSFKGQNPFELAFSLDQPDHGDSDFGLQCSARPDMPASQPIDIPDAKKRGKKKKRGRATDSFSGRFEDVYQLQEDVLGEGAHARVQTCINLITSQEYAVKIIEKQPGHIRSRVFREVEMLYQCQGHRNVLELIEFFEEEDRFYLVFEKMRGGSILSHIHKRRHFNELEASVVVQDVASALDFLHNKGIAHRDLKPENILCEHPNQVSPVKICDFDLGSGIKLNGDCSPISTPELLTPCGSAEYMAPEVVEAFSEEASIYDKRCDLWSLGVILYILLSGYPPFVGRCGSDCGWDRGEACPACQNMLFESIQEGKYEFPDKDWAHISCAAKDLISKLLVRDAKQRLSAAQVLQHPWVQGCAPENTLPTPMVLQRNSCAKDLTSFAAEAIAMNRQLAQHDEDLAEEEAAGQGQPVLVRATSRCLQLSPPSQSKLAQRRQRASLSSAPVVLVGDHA

[7] = target: RAF proto-oncogene serine/threonine-protein kinase (Homo sapiens) (UniProt P04049); experiment: Inhibition of CRAF (unknown origin) by Nano-syn mobility shift assay
Sequence of RAF proto-oncogene serine/threonine-protein kinase (Homo sapiens) (P04049 whole entry): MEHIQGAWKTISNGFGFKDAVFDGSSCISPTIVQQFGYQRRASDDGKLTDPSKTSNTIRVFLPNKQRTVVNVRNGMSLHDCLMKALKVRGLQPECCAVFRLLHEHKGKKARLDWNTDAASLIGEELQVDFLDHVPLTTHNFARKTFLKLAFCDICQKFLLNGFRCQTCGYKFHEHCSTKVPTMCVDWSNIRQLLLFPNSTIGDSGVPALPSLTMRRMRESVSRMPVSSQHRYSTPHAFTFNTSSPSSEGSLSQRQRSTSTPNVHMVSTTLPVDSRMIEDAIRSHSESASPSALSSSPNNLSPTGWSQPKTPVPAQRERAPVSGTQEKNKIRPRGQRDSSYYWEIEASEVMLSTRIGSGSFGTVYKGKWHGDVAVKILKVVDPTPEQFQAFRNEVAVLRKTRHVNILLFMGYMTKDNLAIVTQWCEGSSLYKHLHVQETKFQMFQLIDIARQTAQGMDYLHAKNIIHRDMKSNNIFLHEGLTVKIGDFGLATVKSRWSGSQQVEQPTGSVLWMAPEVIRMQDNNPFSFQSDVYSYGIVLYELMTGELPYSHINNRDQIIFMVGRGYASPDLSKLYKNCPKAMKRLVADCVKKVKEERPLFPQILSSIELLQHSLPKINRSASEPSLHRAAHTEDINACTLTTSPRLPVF

[8] = target: MAP kinase-interacting serine/threonine-protein kinase 1 (Homo sapiens) (UniProt Q9BUB5); experiment: Inhibition of MKNK1 (unknown origin) by Nano-syn mobility shift assay
Sequence of MAP kinase-interacting serine/threonine-protein kinase 1 (Homo sapiens) (Q9BUB5 whole entry, looked up): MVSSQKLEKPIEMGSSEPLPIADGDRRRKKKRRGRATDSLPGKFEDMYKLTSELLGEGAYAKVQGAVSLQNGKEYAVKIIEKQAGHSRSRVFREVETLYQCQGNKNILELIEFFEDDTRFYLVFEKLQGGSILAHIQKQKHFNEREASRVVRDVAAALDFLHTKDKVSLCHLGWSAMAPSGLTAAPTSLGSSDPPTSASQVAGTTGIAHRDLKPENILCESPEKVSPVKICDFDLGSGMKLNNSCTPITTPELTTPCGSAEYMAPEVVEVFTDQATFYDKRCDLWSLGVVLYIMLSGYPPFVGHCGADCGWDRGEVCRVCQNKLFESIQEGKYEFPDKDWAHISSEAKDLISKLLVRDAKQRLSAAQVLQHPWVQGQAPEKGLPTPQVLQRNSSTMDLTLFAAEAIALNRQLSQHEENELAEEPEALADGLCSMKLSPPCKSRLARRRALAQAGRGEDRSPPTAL

[9] = target: Mitogen-activated protein kinase 11 (Homo sapiens) (UniProt Q15759); experiment: Inhibition of MAPK11 (unknown origin) by Nano-syn mobility shift assay
[10] = target: Tyrosine-protein kinase Fgr (Homo sapiens) (UniProt P09769); experiment: Inhibition of FGR (unknown origin) by Nano-syn mobility shift assay
[11] = target: Ephrin type-A receptor 2 (Homo sapiens) (UniProt P29317); experiment: Inhibition of EPH-A2 (unknown origin) by Nano-syn mobility shift assay
[12] = target: Fibroblast growth factor receptor 3 (Homo sapiens) (UniProt P22607); experiment: Inhibition of FGFR3 (unknown origin) by Nano-syn mobility shift assay
[13] = target: Platelet-derived growth factor receptor alpha (Homo sapiens) (UniProt P16234); experiment: Inhibition of PDFGRA (unknown origin) by Nano-syn mobility shift assay; settings: concentration not given here
Sequence of Platelet-derived growth factor receptor alpha (Homo sapiens) (P16234 whole entry): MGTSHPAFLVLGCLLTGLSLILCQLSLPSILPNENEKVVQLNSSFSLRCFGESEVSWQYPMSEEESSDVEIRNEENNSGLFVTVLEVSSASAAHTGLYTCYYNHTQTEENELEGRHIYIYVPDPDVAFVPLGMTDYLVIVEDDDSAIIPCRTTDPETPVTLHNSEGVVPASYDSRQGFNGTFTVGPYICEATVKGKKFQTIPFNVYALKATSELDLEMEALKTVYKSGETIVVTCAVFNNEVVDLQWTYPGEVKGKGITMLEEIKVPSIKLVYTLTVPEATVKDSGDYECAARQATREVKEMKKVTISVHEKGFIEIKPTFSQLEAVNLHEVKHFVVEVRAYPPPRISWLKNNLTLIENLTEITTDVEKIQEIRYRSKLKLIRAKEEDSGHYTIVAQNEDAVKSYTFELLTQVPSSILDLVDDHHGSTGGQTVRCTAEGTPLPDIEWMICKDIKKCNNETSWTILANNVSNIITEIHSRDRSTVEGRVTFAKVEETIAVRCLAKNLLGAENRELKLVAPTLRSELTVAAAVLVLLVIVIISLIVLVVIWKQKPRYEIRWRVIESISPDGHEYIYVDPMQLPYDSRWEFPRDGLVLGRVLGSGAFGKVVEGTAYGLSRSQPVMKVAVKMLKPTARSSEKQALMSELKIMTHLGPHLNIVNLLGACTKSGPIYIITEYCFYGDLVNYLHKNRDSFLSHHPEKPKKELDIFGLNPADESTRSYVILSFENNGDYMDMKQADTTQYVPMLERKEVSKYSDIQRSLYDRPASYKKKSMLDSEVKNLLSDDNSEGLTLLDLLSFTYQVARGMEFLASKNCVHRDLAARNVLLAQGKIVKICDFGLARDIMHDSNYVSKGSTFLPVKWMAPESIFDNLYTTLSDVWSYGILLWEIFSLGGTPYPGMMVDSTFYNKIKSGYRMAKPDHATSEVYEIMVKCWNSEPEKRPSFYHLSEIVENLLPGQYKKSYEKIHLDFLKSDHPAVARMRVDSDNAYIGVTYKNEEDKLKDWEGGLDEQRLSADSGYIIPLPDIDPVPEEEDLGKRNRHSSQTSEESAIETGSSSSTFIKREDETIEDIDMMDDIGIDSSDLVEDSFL

[14] = target: Tyrosine-protein kinase ABL2 (Homo sapiens) (UniProt P42684); experiment: Inhibition of ABL2 (unknown origin) by Nano-syn mobility shift assay; settings: concentration not given here
[15] = target: Angiopoietin-1 receptor (Homo sapiens) (UniProt Q02763); experiment: Inhibition of TEK (unknown origin) by Nano-syn mobility shift assay; settings: concentration not given here
Sequence of Angiopoietin-1 receptor (Homo sapiens) (Q02763 whole entry): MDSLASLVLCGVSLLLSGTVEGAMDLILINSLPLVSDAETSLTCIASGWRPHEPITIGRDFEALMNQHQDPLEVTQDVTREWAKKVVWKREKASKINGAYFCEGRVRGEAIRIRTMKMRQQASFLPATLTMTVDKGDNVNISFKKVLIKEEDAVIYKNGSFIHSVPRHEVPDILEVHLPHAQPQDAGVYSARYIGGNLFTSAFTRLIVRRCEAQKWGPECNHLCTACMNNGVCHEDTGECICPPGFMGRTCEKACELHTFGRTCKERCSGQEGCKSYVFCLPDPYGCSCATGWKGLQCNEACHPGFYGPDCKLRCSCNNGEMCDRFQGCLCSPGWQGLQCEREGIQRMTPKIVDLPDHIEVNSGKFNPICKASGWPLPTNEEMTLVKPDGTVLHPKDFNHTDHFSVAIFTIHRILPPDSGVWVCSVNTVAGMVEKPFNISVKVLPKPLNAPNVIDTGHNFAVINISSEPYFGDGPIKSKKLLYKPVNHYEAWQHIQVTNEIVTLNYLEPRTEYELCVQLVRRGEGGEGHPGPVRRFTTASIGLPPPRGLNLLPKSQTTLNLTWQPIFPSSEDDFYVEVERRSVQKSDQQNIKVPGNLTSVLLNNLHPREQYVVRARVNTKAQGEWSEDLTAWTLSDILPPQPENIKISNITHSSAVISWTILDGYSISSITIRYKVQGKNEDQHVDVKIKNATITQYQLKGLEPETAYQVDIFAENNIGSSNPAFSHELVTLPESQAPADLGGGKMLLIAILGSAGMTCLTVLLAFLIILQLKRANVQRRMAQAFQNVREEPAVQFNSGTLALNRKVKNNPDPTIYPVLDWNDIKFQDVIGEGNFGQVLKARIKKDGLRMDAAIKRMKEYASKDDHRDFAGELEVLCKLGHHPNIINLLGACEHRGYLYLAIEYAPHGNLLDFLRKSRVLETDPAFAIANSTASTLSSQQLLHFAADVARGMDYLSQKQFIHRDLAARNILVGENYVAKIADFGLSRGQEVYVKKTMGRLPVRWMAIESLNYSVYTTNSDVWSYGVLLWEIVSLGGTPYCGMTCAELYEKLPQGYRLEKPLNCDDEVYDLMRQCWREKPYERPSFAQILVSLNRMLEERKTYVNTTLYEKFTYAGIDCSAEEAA

[16] = target: Receptor-type tyrosine-protein kinase FLT3 (Homo sapiens) (UniProt P36888); experiment: Inhibition of FLT3 (unknown origin) by Nano-syn mobility shift assay; settings: concentration not given here
[17] = target: High affinity nerve growth factor receptor (Homo sapiens) (UniProt P04629); experiment: Inhibition of NTRK1 (unknown origin) by Nano-syn mobility shift assay; settings: concentration not given here
Sequence of High affinity nerve growth factor receptor (Homo sapiens) (P04629 33-796 limits assumed): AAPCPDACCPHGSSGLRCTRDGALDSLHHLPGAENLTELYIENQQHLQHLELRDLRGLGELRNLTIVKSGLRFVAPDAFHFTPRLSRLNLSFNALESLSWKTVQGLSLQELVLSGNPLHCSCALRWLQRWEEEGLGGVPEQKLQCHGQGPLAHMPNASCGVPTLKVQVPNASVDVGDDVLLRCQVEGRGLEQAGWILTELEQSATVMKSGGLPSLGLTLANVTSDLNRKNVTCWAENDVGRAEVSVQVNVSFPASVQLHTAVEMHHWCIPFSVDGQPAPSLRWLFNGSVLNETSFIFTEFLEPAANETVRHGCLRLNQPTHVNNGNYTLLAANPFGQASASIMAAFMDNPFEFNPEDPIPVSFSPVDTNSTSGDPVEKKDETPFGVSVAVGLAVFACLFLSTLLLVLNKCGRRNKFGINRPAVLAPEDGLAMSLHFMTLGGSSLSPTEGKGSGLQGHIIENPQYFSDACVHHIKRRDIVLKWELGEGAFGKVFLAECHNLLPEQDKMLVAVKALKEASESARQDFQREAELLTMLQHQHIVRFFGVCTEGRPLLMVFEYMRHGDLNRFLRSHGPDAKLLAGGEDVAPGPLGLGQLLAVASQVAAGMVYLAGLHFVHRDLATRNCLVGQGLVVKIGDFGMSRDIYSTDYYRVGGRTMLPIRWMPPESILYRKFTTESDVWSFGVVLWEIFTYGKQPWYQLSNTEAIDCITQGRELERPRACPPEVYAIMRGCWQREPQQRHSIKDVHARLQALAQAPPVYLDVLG

[18] = target: Tyrosine-protein kinase Lck (Homo sapiens) (UniProt P06239); experiment: Inhibition of LCK (unknown origin) by Nano-syn mobility shift assay; settings: concentration not given here
Sequence of Tyrosine-protein kinase Lck (Homo sapiens) (P06239 2-509 limits assumed): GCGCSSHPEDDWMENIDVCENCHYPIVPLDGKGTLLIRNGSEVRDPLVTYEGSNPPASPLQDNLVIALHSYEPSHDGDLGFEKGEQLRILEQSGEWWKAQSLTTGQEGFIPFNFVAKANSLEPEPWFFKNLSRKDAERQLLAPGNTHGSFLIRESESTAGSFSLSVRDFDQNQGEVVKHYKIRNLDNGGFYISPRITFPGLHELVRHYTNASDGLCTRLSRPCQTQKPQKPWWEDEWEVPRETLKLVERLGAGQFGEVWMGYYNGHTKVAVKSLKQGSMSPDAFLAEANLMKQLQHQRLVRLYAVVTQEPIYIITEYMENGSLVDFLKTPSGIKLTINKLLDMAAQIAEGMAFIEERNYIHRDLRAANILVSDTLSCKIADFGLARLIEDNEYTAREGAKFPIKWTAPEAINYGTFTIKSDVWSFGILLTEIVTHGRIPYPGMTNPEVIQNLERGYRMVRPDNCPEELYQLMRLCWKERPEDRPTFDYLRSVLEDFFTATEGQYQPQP

[19] = target: Fibroblast growth factor receptor 1 (Homo sapiens) (UniProt P11362); experiment: Inhibition of FGFR1 (unknown origin) by Nano-syn mobility shift assay
[20] = target: Tyrosine-protein kinase receptor UFO (Homo sapiens) (UniProt P30530); experiment: Inhibition of AXL (unknown origin) by Nano-syn mobility shift assay
Homo sapiens [21] = organism: Homo sapiens; experiment: Inhibition of LYNA (unknown origin) by Nano-syn mobility shift assay; settings: concentration not given here
Homo sapiens [22] = organism: Homo sapiens; experiment: Inhibition of LYNB (unknown origin) by Nano-syn mobility shift assay; settings: concentration not given here
[23] = target: Tyrosine-protein kinase receptor UFO (Homo sapiens, UniProt P30530); experiment: Inhibition of AXL (unknown origin) using peptide substrate in presence of ATP by radiometric HotSpot assay
[24] = target: Vascular endothelial growth factor receptor 1 (Homo sapiens) (UniProt P17948); experiment: Inhibition of FLT1 (unknown origin) by Nano-syn mobility shift assay
[25] = target: Vascular endothelial growth factor receptor 3 (Homo sapiens) (UniProt P35916); experiment: Inhibition of FLT4 (unknown origin) by Nano-syn mobility shift assay
[26] = target: Platelet-derived growth factor receptor beta (Homo sapiens) (UniProt P09619); experiment: Inhibition of PDFGRB (unknown origin) by Nano-syn mobility shift assay
[27] = target: Discoidin domain-containing receptor 2 (Homo sapiens) (UniProt Q16832); experiment: Inhibition of DDR2 (unknown origin) by Nano-syn mobility shift assay
[28] = target: Proto-oncogene tyrosine-protein kinase receptor Ret (Homo sapiens) (UniProt P07949); experiment: Inhibition of RET (unknown origin) by Nano-syn mobility shift assay
[29] = target: Muscle, skeletal receptor tyrosine-protein kinase (Homo sapiens) (UniProt O15146); experiment: Inhibition of MUSK (unknown origin) by Nano-syn mobility shift assay
[30] = target: Ephrin type-A receptor 8 (Homo sapiens) (UniProt P29322); experiment: Inhibition of EPH-A8 (unknown origin) by Nano-syn mobility shift assay

SMILES	inhibition [1]	GI50 (BaF3 [2]) [nM]	inhibition [3]	GI50 (K562) [nM]	GI50 (BaF3 [4]) [nM]	IC50 [5] [nM]	inhibition [6]	inhibition [7]	inhibition [8]	inhibition [9]	inhibition [10]	inhibition [11]	inhibition [13] [%]	inhibition [14] [%]	inhibition [15] [%]	inhibition [16] [%]	inhibition [17] [%]	inhibition [18] [%]	inhibition (Homo sapiens [21]) [%]	inhibition (Homo sapiens [22]) [%]	further results
CN1CCN(Cc2ccc(NC(=O)Nc3ccc(Oc4ccc5cccnc5c4)cc3)cc2C(F)(F)F)CC1	Active	> 10000	Active	451	> 10000	637	Active	Active	Active	Active	–	–	–	–	–	–	–	–	–	–	–
CC(C)(C)c1cc(NC(=O)Nc2ccc(Oc3ccc4ncncc4c3)cc2)n(-c2ccc3ncccc3c2)n1	–	66	–	4	269	–	–	–	–	–	Active	Active	> 50	> 50	> 50	> 50	> 50	> 50	–	–	inhibition [12]: Active; inhibition [19]: Active; inhibition [20]: Active
CC(C)(C)c1cc(NC(=O)Nc2ccc(Oc3ccc4ncccc4c3)cc2)n(-c2ccc3ncccc3c2)n1	–	164	Active	13	801	345	–	Active	–	–	–	–	> 50	> 50	> 50	> 50	> 50	> 50	> 50	> 50	inhibition [12]: Active; IC50 [23]: 12 nM; inhibition [20]: Active
CC(C)(C)c1cc(NC(=O)Nc2ccc(Oc3ccc4cccnc4c3)cc2)n(-c2ccc3ncccc3c2)n1	–	> 5000	Active	239	> 10000	719	–	Active	–	–	–	–	–	–	–	–	–	–	–	–	–
CN1CCN(Cc2ccc(NC(=O)Nc3ccc(Oc4ccc5ncccc5c4)cc3)cc2C(F)(F)F)CC1	Active	36	Active	6.9	162	38.3	Active	Active	Active	Active	–	–	> 50	> 50	> 50	> 50	> 50	> 50	> 50	> 50	inhibition [24]: Active; inhibition [25]: Active; inhibition [26]: Active; inhibition [27]: Active; inhibition [28]: Active; inhibition [29]: Active; inhibition [30]: Active
CN1CCN(Cc2ccc(NC(=O)Nc3ccc(Oc4ccc5ncncc5c4)cc3)cc2C(F)(F)F)CC1	Active	83	–	2.3	117	15.7	Active	–	Active	Active	Active	Active	> 50	> 50	> 50	> 50	> 50	> 50	> 50	> 50	inhibition [19]: Active
